Assays:
Assay type in all cases: cell-based, murine
SSPN, sarcospan [1] = experiment: SSPN gene expression by qPCR in mdx myotubes; settings: for SSPN gene expression over vehicle: 1-10 μM, 48 hours, normalized to β-actin (FIG. 10d)
Description: (§1) RNA from myotubes treated for 48 hours was extracted from cells using Trizol-based (Thermo Fisher Scientific) phase separation. RNA concentrations were determined using a NanoDrop 1000 (Thermo Fisher Scientific) and 750 ng of RNA in a 20 μl reaction was reverse transcribed using iScript cDNA synthesis (Bio-Rad) with the following cycling conditions: 25° C. for 5 minutes, 42° C. for 30 minutes, 85° C. for 5 minutes. For quantitative PCR, SsoFast EvaGreen Supermix (Bio-Rad), 400 nM of each optimized forward and reverse primer (for primer descriptions see Table 1), and cDNA corresponding to 37.5 ng RNA were used to amplify cDNA measured by Applied Biosystems 7300 (Thermo Fisher Scientific) with the following reaction conditions: 55° C. for 2 minutes, 95° C. for 2 minutes, 40 cycles of 95° C. for 10 seconds and 62° C. for 30 seconds, and dissociation stage. Each sample was run in triplicate. Data was analyzed using the ddCT method and normalized to reference gene, GAPDH or β-actin, with vehicle-treated samples serving as the calibrator (relative expression of vehicle control=1). C2C12 cells (American Type Culture Collection) were grown at 37° C. with 5% CO2 in growth media containing DMEM (Gibco) with 20% FBS (Sigma-Aldrich). Upon reaching confluency, the media was replaced with differentiation media containing DMEM with 2% horse serum (Sigma-Aldrich). Conditionally immortalized H2K mdx myoblast cells with a nonsense mutation in exon 23 of dystrophin were a gift from Terrance Partridge, Ph.D. (Children's National Medical Center, Washington, D.C.). Cells were allowed to proliferate on 0.01% gelatin (Sigma-Aldrich) coated plates at 33° C. with 5% CO2 with growth media containing DMEM, 20% HI-FBS (Invitrogen), 2% L-glutamine (Sigma-Aldrich), 2% chicken embryo extract (Accurate Chemical), 1% penicillin-streptomycin (Sigma-Aldrich), and 20U/ml of fresh interferon gamma (Gibco). For differentiation, H2K mdx myoblasts were seeded on plates coated with 0.1 mg/ml matrigel (Corning) diluted in DMEM and grown in proliferation conditions. […]

MYOG, myogenin = experiment: MYOG gene expression by qPCR in C2C12 wild-type myotubes; settings: 48 hours, normalized to β-actin (FIG. 12a)
Description: as §1, with “(Sigma-Aldrich).” for “(Sigma-Aldrich). Conditionally immortalized H2K mdx myoblast cells with a nonsense mutation in exon 23 of dystrophin were a gift from Terrance Partridge, Ph.D. (Children's National Medical Center, Washington, D.C.). Cells were allowed to proliferate on 0.01% gelatin (Sigma-Aldrich) coated plates at 33° C. with 5% CO2 with growth media containing DMEM, 20% HI-FBS (Invitrogen), 2% L-glutamine (Sigma-Aldrich), 2% chicken embryo extract (Accurate Chemical), 1% penicillin-streptomycin (Sigma-Aldrich), and 20U/ml of fresh interferon gamma (Gibco). For differentiation, H2K mdx myoblasts were seeded on plates coated with 0.1 mg/ml matrigel (Corning) diluted in DMEM and grown in proliferation conditions.”

mdx myotubes = experiment: Fusion index in mdx myotubes; settings: mdx myotubes (FIG. 12c-d)
[2] = test system: hSSPN-EGFP myotubes (human sarcospan promoter reporter in C2C12); experiment: hSSPN-EGFP reporter myotube assay (high-content imaging)
Description: C2C12 immortalized murine myoblasts cultured in growth media consisting of DMEM (Gibco) with 20% Fetal Bovine Serum (Sigma-Aldrich) at 37° C. with 5% CO2 were transfected with the hSSPN-EGFP or hSSPN-Luciferase linearized plasmids using Lipofectamine 3000 Transfection Reagent (Thermo Fisher Scientific). Transfected cells were selected using 800 μg/ml of G418 (Sigma-Aldrich) for 4 weeks to generate stable cell lines expressing reporter protein under control of the human SSPN promoter.
hSSPN-EGFP myoblasts were seeded at 500 cells per well in 50 μl of growth media in 384-well black, clear bottom microplates (Greiner) using a Multidrop 384 (Thermo Fisher Scientific) and incubated for 3 days. Upon reaching confluency, the growth media was replaced with 50 μl of differentiation media consisting of DMEM with 2% horse serum (Sigma-Aldrich) using an EL406 combination washer dispenser (Biotek). At day 2 of differentiation, the media on the cells was aspirated, left with a residual volume of 10 μl, and replaced with 30 μl of fresh differentiation media. 0.5 μl of small molecule in DMSO or DMSO alone (for vehicle and positive control wells) was added to each well using a Biomek Fx (Beckman). To ensure proper mixing of the DMSO, 50 μl of additional differentiation media was added to all wells except the positive control treated wells, which instead received 50 μl of media containing insulin transferrin selenium (ITS, Gibco) to reach a final concentration of 1% ITS. The final concentration of drug in each treated well was 5.5 μM in 0.55% DMSO and 0.55% DMSO for vehicle and positive control treated wells. After 48 hours of incubation, the media was replaced with Fluorobrite DMEM (Gibco) and each plate was imaged using ImageXpress Micro Confocal High Content Imaging System (Molecular Devices). The fluorescent intensity of imaged cells was determined using MetaXpress Analysis software (Molecular Devices). Analysis setting were as follows: top hat (size: 12, filter shape: circle), adaptive threshold (source: top hat, minimum width: 10, maximum width: 800, intensity above local background: 500), filter mask (filter type: minimum area filter, minimum value: 500). […]

SSPN, sarcospan [3] = experiment: SSPN gene expression by qPCR in C2C12 wild-type myotubes; settings: 1-10 μM, 48 hours, normalized to β-actin (FIG. 10c)
Description: as §1

`CCOC(=O)C1=C(C)NC(C)=C(C(=O)OC)C1c1cccc(Cl)c1Cl` (stereo not shown) [Felodipine, 5-O-ethyl 3-O-methyl 4-(2,3-dichlorophenyl)-2,6-dimethyl-1,4-dihydropyridine-3,5-dicarboxylate] was tested, and the “SSPN gene expression over vehicle” value (SSPN, sarcospan [1]) was “increases sarcospan gene expression”, the “SSPN gene expression over vehicle” value (SSPN, sarcospan [1]; listed as felodipine) was “increase in SSPN gene expression” and the “SSPN gene expression relative to vehicle” value (SSPN, sarcospan [1]; 48h, normalized to GAPDH, n=2 (FIG. 11d)) was “only increased sarcospan levels”. For the same compound, the myogenin gene expression (MYOG, myogenin) was “increases”, the “fusion index (nuclei in myosin heavy chain positive area/total nuclei in field)” value (mdx myotubes) was “does not increase fusion index” and the “fluorescence intensity over vehicle, primary screen hit call” value ([2]; primary screen of 3,200 molecules, 5.5 μM, 48 hours, n=1, hit cutoff 1.4-fold) was “hits”. The “hSSPN-EGFP RFU, Plate 1” value ([2]; retest of screen hits at 5.5 μM, Plate 1, n=24 per plate) was 1.4 RFU, the “hSSPN-EGFP RFU, Plate 2” value ([2]; retest of screen hits at 5.5 μM, Plate 2, n=24 per plate) was 1.4 RFU and the “SSPN gene expression over vehicle” value (SSPN, sarcospan [3]) was “increases sarcospan gene expression”. For the same compound, the “SSPN gene expression over vehicle” value (SSPN, sarcospan [3]; listed as felodipine) was “increased over vehicle”.
